Measurements from patent publication US20260053811A1, “METHODS OF TREATING HYPERTENSION IN OBESE SUBJECTS” (Mineralys Therapeutics, Inc., priority 2022, published 2026).

System: hypertensive subjects
Experiment: 24-hour ambulatory blood pressure monitoring (ABPM), incl. nighttime dip
Assay type: in vivo, human
Method: Ambulatory blood pressure monitoring was accomplished with an ambulatory blood pressure monitoring device that consists of a blood pressure cuff worn on a subject's arm attached to a small recording device that is typically attached to the subject's belt or waistband.
The ABPM device is worn for 24 hours. Throughout that period, the device records the subject's blood pressure at regular intervals, during the subject's routine daily activities and while they are sleeping. The ABPM thus provides a complete record of the subject's blood pressure over a 24-hour period.
24-hour ABPM was measured in the clinic at baseline and Study Week 7. If, for any reason, the ABPM procedure was deemed a failure at the end of Study Week 7, it may have been repeated at Study Week 8 and therefore no imputation was employed regardless of use of rescue medications. Additionally, ABPM was also collected at the end of Study Week 4 in Part 2. If a repeat test was performed, it supersedes the original test results for that visit.
Specific derived variables based on ABPM measurements include mean 24-hour, mean Daytime, and mean Nighttime of SBP, DBP, and heart rate.
Change from baseline to Week 7 in 24-hour mean SBP (and DBP) based on ABPM will be analyzed using an ANCOVA with a term for treatment group and a baseline mean 24-hour value as a covariate.
The nighttime dip is defined as
100%×(mean daytime SBP−mean nighttime SBP)/mean daytime SBP
It is expressed as a percentage and is summarized by treatment group and visit using descriptive statistics. In addition, the number and percentage of subjects with nighttime dip in each of the dipper categories (Bloomfield & Park, 2015) is presented by treatment group and visit. The categories are: • (a) <10% • (b) 10-20% inclusive • (c) >20%
Secondary endpoints of this study were: • (a) Change in 24-hour ambulatory blood pressure monitoring (ABPM) parameters (systolic and diastolic) from baseline to the end of Study Week 7. • (b) Change in office-measured SBP from baseline to the end of Study Weeks 1, 2, 3, 4, 5, 6, and 7. • (c) Change in office-measured diastolic blood pressure (DBP) from baseline to the end of Study Weeks 1, 2, 3, 4, 5, 6, 7, and 8. • (d) Proportion of subjects who achieve office-measured BP of ≤130/80 mm Hg by the end of Study Week 8.

[1] = 50 mg QD, End of Treatment, Part 1, FAS post-hoc
[2] = 100 mg QD Part 2, End of Treatment, FAS post-hoc
[3] = 100 mg QD, End of Treatment, Part 1, FAS post-hoc

## CC(=O)N[C@H]1CC[C@H](NC(=O)CN2CCN(c3nncc(-c4ccc(C)cc4)n3)CC2)CC1 [Compound A HBr]
[1]
  LSM Δ with Placebo, 24-hr Mean MAP (ABPM, ANCOVA): −3.48 mmHg
  LSM Δ with Placebo, 24-hr SBP (ABPM, ANCOVA): −3.85 mmHg
  LSM Δ with Placebo, Daytime Mean DBP (ABPM, ANCOVA): −4.18 mmHg
  LSM Δ with Placebo, Daytime Mean SBP (ABPM, ANCOVA): −6.85 mmHg
  LSM Δ with Placebo, Mean Central DBP (ABPM, ANCOVA): −2.58 mmHg
  LSM Δ with Placebo, Mean Central Mean BP (ABPM, ANCOVA): −4.11 mmHg
  LSM Δ with Placebo, Mean Central SBP (ABPM, ANCOVA): −5.46 mmHg
  LSM Δ with Placebo, Nighttime Mean DBP (ABPM, ANCOVA): 0.15 mmHg
  LSM Δ with Placebo, Nighttime Mean SBP (ABPM, ANCOVA): 2.37 mmHg
50 mg QD, EoT, Part 1, FAS
  24-hr Mean DBP (ABPM), Mean (SD): 77.75 (9.33) mmHg
  24-hr Mean MAP (ABPM), Mean (SD): 104.55 (11.74) mmHg
  24-hr Mean SBP (ABPM), Mean (SD): 131.36 (15.58) mmHg
  Daytime Mean DBP (ABPM), Mean (SD): 79.50 (9.08) mmHg
  Daytime Mean SBP (ABPM), Mean (SD): 132.32 (14.36) mmHg
  Nighttime Mean DBP (ABPM), Mean (SD): 74.25 (13.08) mmHg
  Nighttime Mean SBP (ABPM), Mean (SD): 129.54 (21.68) mmHg
  Subjects with nighttime dip 10-20% in 24-hour systolic ABPM: 6 (21.4) n (%)
  Subjects with nighttime dip <10% in 24-hour systolic ABPM: 22 (78.6) n (%)
  Subjects with nighttime dip >20% in 24-hour systolic ABPM: 0 n (%)
50 mg QD, Part 1, FAS
  24-hr Mean DBP (ABPM) CFB to EoT, Mean (SD): −3.00 (8.52) mmHg
  24-hr Mean MAP (ABPM) CFB to EoT, Mean (SD): −2.39 (11.80) mmHg
  24-hr Mean SBP (ABPM) CFB to EoT, Mean (SD): −1.79 (15.82) mmHg
  Daytime Mean DBP (ABPM) CFB to EoT, Mean (SD): −4.11 (6.81) mmHg
  Daytime Mean SBP (ABPM) CFB to EoT, Mean (SD): −4.54 (13.59) mmHg
  Nighttime Mean DBP (ABPM) CFB to EoT, Mean (SD): 0.00 (12.34) mmHg
  Nighttime Mean SBP (ABPM) CFB to EoT, Mean (SD): 2.44 (22.25) mmHg
[2]
  LSM Δ with 100 mg QD Part 1, 24-hr Mean AP (ABPM, ANCOVA): 3.33 mmHg
  LSM Δ with 100 mg QD Part 1, 24-hr Mean DBP (ABPM, ANCOVA): 4.26 mmHg
  LSM Δ with 100 mg QD Part 1, 24-hr Mean SBP (ABPM, ANCOVA): 4.13 mmHg
  LSM Δ with 100 mg QD Part 1, Daytime Mean DBP (ABPM, ANCOVA): 3.92 mmHg
  LSM Δ with 100 mg QD Part 1, Daytime Mean SBP (ABPM, ANCOVA): 1.64 mmHg
  LSM Δ with 100 mg QD Part 1, Mean Central DBP (ABPM, ANCOVA): 4.53 mmHg
  LSM Δ with 100 mg QD Part 1, Mean Central Mean BP (ABPM, ANCOVA): 3.98 mmHg
  LSM Δ with 100 mg QD Part 1, Mean Central SBP (ABPM, ANCOVA): 4.68 mmHg
  LSM Δ with 100 mg QD Part 1, Nighttime Mean DBP (ABPM, ANCOVA): 5.04 mmHg
  LSM Δ with 100 mg QD Part 1, Nighttime Mean SBP (ABPM, ANCOVA): 8.91 mmHg
[3]
  LSM Δ with Placebo, 24-hr DBP (ABPM, ANCOVA): −5.23 mmHg
  LSM Δ with Placebo, 24-hr Mean MAP (ABPM, ANCOVA): −5.45 mmHg
  LSM Δ with Placebo, 24-hr SBP (ABPM, ANCOVA): −5.33 mmHg
  LSM Δ with Placebo, Daytime Mean DBP (ABPM, ANCOVA): −4.98 mmHg
  LSM Δ with Placebo, Daytime Mean SBP (ABPM, ANCOVA): −4.12 mmHg
  LSM Δ with Placebo, Mean Central DBP (ABPM, ANCOVA): −7.01 mmHg
  LSM Δ with Placebo, Mean Central Mean BP (ABPM, ANCOVA): −7.77 mmHg
  LSM Δ with Placebo, Mean Central SBP (ABPM, ANCOVA): −7.79 mmHg
  LSM Δ with Placebo, Nighttime Mean DBP (ABPM, ANCOVA): −5.68 mmHg
  LSM Δ with Placebo, Nighttime Mean SBP (ABPM, ANCOVA): −7.36 mmHg
100 mg QD, EoT, Part 1, FAS
  24-hr Mean DBP (ABPM), Mean (SD): 75.92 (8.42) mmHg
  24-hr Mean MAP (ABPM), Mean (SD): 105.48 (8.26) mmHg
  24-hr Mean SBP (ABPM), Mean (SD): 135.04 (11.25) mmHg
  Daytime Mean DBP (ABPM), Mean (SD): 78.79 (9.44) mmHg
  Daytime Mean SBP (ABPM), Mean (SD): 139.42 (11.65) mmHg
  Nighttime Mean DBP (ABPM), Mean (SD): 69.00 (9.04) mmHg
  Nighttime Mean SBP (ABPM), Mean (SD): 124.50 (14.93) mmHg
  Subjects with nighttime dip 10-20% in 24-hour systolic ABPM: 11 (45.8) n (%)
  Subjects with nighttime dip <10% in 24-hour systolic ABPM: 11 (45.8) n (%)
  Subjects with nighttime dip >20% in 24-hour systolic ABPM: 2 (8.3) n (%)
100 mg QD, EoT, Part 2, FAS
  24-hr Mean DBP (ABPM), Mean: 77.07 mmHg
  24-hr Mean MAP (ABPM), Mean: 104.83 mmHg
  24-hr Mean SBP (ABPM), Mean: 132.59 mmHg
  Daytime Mean DBP (ABPM), Mean: 79.41 mmHg
  Daytime Mean SBP (ABPM), Mean: 135.22 mmHg
  Nighttime Mean DBP (ABPM), Mean: 71.85 mmHg
  Nighttime Mean SBP (ABPM), Mean: 126.04 mmHg
100 mg QD, Part 1, FAS
  24-hr Mean DBP (ABPM) CFB to EoT, Mean (SD): −5.92 (8.44) mmHg
  24-hr Mean MAP (ABPM) CFB to EoT, Mean (SD): −7.40 (10.04) mmHg
  24-hr Mean SBP (ABPM) CFB to EoT, Mean (SD): −8.88 (11.90) mmHg
  Daytime Mean DBP (ABPM) CFB to EoT, Mean (SD): −4.96 (8.74) mmHg
  Daytime Mean SBP (ABPM) CFB to EoT, Mean (SD): −7.08 (12.60) mmHg
  Nighttime Mean DBP (ABPM) CFB to EoT, Mean (SD): −6.57 (9.97) mmHg
  Nighttime Mean SBP (ABPM) CFB to EoT, Mean (SD): −11.48 (13.87) mmHg
100 mg QD, Part 2, FAS
  24-hr Mean DBP (ABPM) CFB to EoT, Mean: 1.33 mmHg
  24-hr Mean MAP (ABPM) CFB to EoT, Mean: 1.81 mmHg
  24-hr Mean SBP (ABPM) CFB to EoT, Mean: 2.30 mmHg
  Daytime Mean DBP (ABPM) CFB to EoT, Mean: 1.67 mmHg
  Daytime Mean SBP (ABPM) CFB to EoT, Mean: 2.41 mmHg
  Nighttime Mean DBP (ABPM) CFB to EoT, Mean: 1.04 mmHg
  Nighttime Mean SBP (ABPM) CFB to EoT, Mean: 1.52 mmHg
100 mg QD, Week 8, FAS
  Change in BP, ABPM (night) BPsys, Mean (sem): −11.5 (2.5) mmHg
Part 2, 100 mg QD, EoT
  Proportion of Subjects with Nighttime Dip in 24-hour Systolic Ambulatory Blood Pressure 10-20%: (33.3) %
  Proportion of Subjects with Nighttime Dip in 24-hour Systolic Ambulatory Blood Pressure <10%: (66.7) %
Part 2, 100 mg QD, Week 4
  Proportion of Subjects with Nighttime Dip in 24-hour Systolic Ambulatory Blood Pressure 10-20%: (24.0) %
  Proportion of Subjects with Nighttime Dip in 24-hour Systolic Ambulatory Blood Pressure <10%: (72.0) %
  Proportion of Subjects with Nighttime Dip in 24-hour Systolic Ambulatory Blood Pressure >20%: (4.0) %
